Laboratory results published in PubChem BioAssay AID2060504 (Molecular Pharmacology Branch, DTP, NCI, 2025).

Test system: 636577-100-R-J1-PDC complex spheroid viability
Assay: Anticancer human tumor 636577-100-R-J1-PDC patient-derived endometrial adenocarcinoma cell line growth inhibition [GQUAD]
Conditions: for IC50: curve of first compound; for viability, T/C: stronger effect = lower value
From the text: DNA G-quadruplex Stabilizer Agents in Combinations in Complex Spheroids
A high-throughput screen of multi-cell type tumor spheroids was designed to identify active combinations of DNA G-quadruplex stabilizer agents and targeted small molecules. Complex spheroids include a stromal component modeled by human endothelial cells (HUVEC) and fibroblasts modeled by human mesenchymal stem cells (MSCs). The concentration ranges selected for each drug and investigational agent were based upon clinically achievable concentrations if the clinical Cmax of the agent was known.
Compounds. The drugs and investigational agents: pidnarulex (CX-5461; NSC782164), APTO-253 (NSC789042), BRACO-19 (NSC847499), peposertib (NSC802822), ceralasertib (NSC780249), elimusertib (NSC800525), camonsertib (NSC841442), AZD-1390 (NSC803789), olaparib (NSC753686), talazoparib (NSC767125), ART-558 (NSC835418), sotorasib (NSC818433), MRTX-1133 (NSC836407), SN-38 (NSC673596), topotecan (NSC609699), etoposide (NSC141540), doxorubicin (NSC123127), gemcitabine (NSC613327), 5-fluorouracil (NSC19893), paclitaxel (NSC125973), vemurafenib (NSC761431), panobinostat (NSC761190), R-306465 (JNJ-16241199; NSC773264), adavosertib (NSC754352), TP-3654 (NSC805149), carboplatin (NSC241240), KSQ-4279 (NSC840948), and staurosporine (NSC755774) were obtained from the National Cancer Institute (NCI) Developmental Therapeutics Program Chemical Repository (34). The FDA-approved anticancer drug set is available from the NCI Developmental Therapeutics Program. […] The stock solutions were prepared in dimethyl sulfoxide (DMSO, Sigma-Aldrich, St. Louis, MO, cat. D2650) at 800-fold the tested concentration and stored at -70 degrees C prior to their use. All drugs and investigational agents were tested over a range starting from a high concentration at or near the clinical Cmax and decreasing in half-log increments. If the clinical Cmax for an agent had not been determined, the highest concentration tested was 10 microM.
2.3 Cell Culture. All cells were maintained in an incubator at 37 degrees C and 5% CO2 with 95% humidity. The PDC lines were cultured according to standard operating procedures established by the NCI PDMR. All PDCs were thawed and cultured in Matrigel-coated flasks prepared with a working solution of 1X Ham's F-12 nutrient mix, without supplementation (Invitrogen, cat. 11765054), 100 U/mL penicillin-streptomycin (Invitrogen, cat. 15140122), and 2.5% Matrigel (Corning Inc., cat. 354248) for the first three passages. The 857933-349-R-J2-PDC line was cultured in 6C/Colon 1B media, which includes advanced DMEM/F-12 (Thermo Fisher Scientific, cat. 12634028), 10 mM HEPES (Thermo Fisher Scientific, cat. 15630080), 1X GlutaMAX supplement (Thermo Fisher Scientific, cat. 35050061), 0.1 mg/mL primocin (InvivoGen, cat. ant-pm-2), 10% defined fetal bovine serum, heat inactivated (HyClone Laboratories Inc., cat. SH30070.03HI), 50% L-WRN conditioned media (ATCC, cat. CRL-3276), 1.25 mM N-Acetyl-L-cysteine (Sigma-Aldrich, cat. A9165), 10 mM nicotinamide (Sigma-Aldrich, cat. N0636), 1X B-27 supplement (Thermo Fisher Scientific, cat. 17504044), 1X N-2 supplement (Thermo Fisher Scientific, cat. 17502048), 10 microM Y-27632 dihydrochloride (Tocris Bioscience, cat. 1254), and 50 ng/mL human EGF recombinant protein (Thermo Fisher Scientific, cat. PHG0311). The 485176-168-R4-J1-PDC line was cultured in Panc media, which includes all 6C/Colon 1B media components plus 100 ng/mL human FGF-10 (Thermo Fisher Scientific, cat. 100-26), 500 nM SB-431542 (Selleckchem, cat. S1067), and gastrin (Tocris, cat. 3006).
[…]

[1] = second compound 0.0316 µM, first compound 0.0316 µM
[2] = second compound 0.0316 µM, first compound 0.1 µM
[3] = second compound 0.0316 µM, first compound 0.316 µM
[4] = second compound 0.0316 µM, first compound 1 µM
[5] = second compound 0.0316 µM, first compound 3.16 µM
[6] = second compound 0.0316 µM, first compound 10 µM
[7] = second compound 0.1 µM, first compound 0.0316 µM
[8] = second compound 0.1 µM, first compound 0.1 µM
[9] = second compound 0.1 µM, first compound 0.316 µM
[10] = second compound 0.1 µM, first compound 1 µM
[11] = second compound 0.1 µM, first compound 3.16 µM
[12] = second compound 0.1 µM, first compound 10 µM
[13] = second compound 0.316 µM, first compound 0.0316 µM
[14] = second compound 0.316 µM, first compound 0.1 µM
[15] = second compound 0.316 µM, first compound 0.316 µM
[16] = second compound 0.316 µM, first compound 1 µM
[17] = second compound 0.316 µM, first compound 3.16 µM
[18] = second compound 0.316 µM, first compound 10 µM
[19] = second compound 1 µM, first compound 0.0316 µM
[20] = second compound 1 µM, first compound 0.1 µM
[21] = second compound 1 µM, first compound 0.316 µM
[22] = second compound 1 µM, first compound 1 µM
[23] = second compound 1 µM, first compound 3.16 µM
[24] = second compound 1 µM, first compound 10 µM
[25] = second compound 3.16 µM, first compound 0.0316 µM
[26] = second compound 3.16 µM, first compound 0.1 µM
[27] = second compound 3.16 µM, first compound 0.316 µM
[28] = second compound 3.16 µM, first compound 1 µM
[29] = second compound 3.16 µM, first compound 3.16 µM
[30] = second compound 3.16 µM, first compound 10 µM
[31] = second compound 10 µM, first compound 0.0316 µM
[32] = second compound 10 µM, first compound 0.1 µM
[33] = second compound 10 µM, first compound 0.316 µM
[34] = second compound 10 µM, first compound 1 µM
[35] = second compound 10 µM, first compound 3.16 µM
[36] = second compound 10 µM, first compound 10 µM
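Further: viability read after seven days of drug exposure.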
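Wherever viability, T/C is given: luminescence signal used as a proxy for viable cells; 100% = DMSO vehicle control wells.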

## CC1COCCN1c1cc(-c2ccnn2C)c2ccnc(-c3ccn[nH]3)c2n1 (centres undefined) + CN(C)c1ccc(Nc2c3ccc(NC(=O)CCN4CCCC4)cc3nc3cc(NC(=O)CCN4CCCC4)ccc23)cc1
Second compound 0.0316 µM
  IC50: 0.0669 µM
Second compound 0.1 µM
  IC50: 0.0637 µM
Second compound 0.316 µM
  IC50: 0.0533 µM
Second compound 1 µM
  IC50: 0.032 µM
Second compound 3.16 µM
  IC50: < 0.0316 µM
Second compound 10 µM
  IC50: < 0.0316 µM
[1]
  viability, T/C: 70%
[2]
  viability, T/C: 39%
[3]
  viability, T/C: 21.6%
[4]
  viability, T/C: 13.2%
[5]
  viability, T/C: 7.12%
[6]
  viability, T/C: 3.43%
[7]
  viability, T/C: 67.8%
[8]
  viability, T/C: 36.9%
[9]
  viability, T/C: 23.4%
[10]
  viability, T/C: 13.1%
[11]
  viability, T/C: 5.95%
[12]
  viability, T/C: 2.75%
[13]
  viability, T/C: 62.1%
[14]
  viability, T/C: 34.5%
[15]
  viability, T/C: 21.6%
[16]
  viability, T/C: 13.4%
[17]
  viability, T/C: 5%
[18]
  viability, T/C: 3.28%
[19]
  viability, T/C: 52%
[20]
  viability, T/C: 27.8%
[21]
  viability, T/C: 22.7%
[22]
  viability, T/C: 14%
[23]
  viability, T/C: 7.85%
[24]
  viability, T/C: 3.23%
[25]
  viability, T/C: 30.8%
[26]
  viability, T/C: 24.2%
[27]
  viability, T/C: 19.4%
[28]
  viability, T/C: 11.3%
[29]
  viability, T/C: 5.18%
[30]
  viability, T/C: 2.8%
[31]
  viability, T/C: 4.8%
[32]
  viability, T/C: 3.22%
[33]
  viability, T/C: 2.72%
[34]
  viability, T/C: 2.01%
[35]
  viability, T/C: 1.02%
[36]
  viability, T/C: 0.62%

## CC1COCCN1c1cc(C2(O)CC3CCC(C2)O3)c2cnn(-c3ccn[nH]3)c2n1 (centres undefined) + CN(C)c1ccc(Nc2c3ccc(NC(=O)CCN4CCCC4)cc3nc3cc(NC(=O)CCN4CCCC4)ccc23)cc1
Second compound 0.0316 µM
  IC50: 0.0462 µM
Second compound 0.1 µM
  IC50: 0.0336 µM
Second compound 0.316 µM
  IC50: < 0.0316 µM
Second compound 1 µM
  IC50: < 0.0316 µM
Second compound 3.16 µM
  IC50: < 0.0316 µM
Second compound 10 µM
  IC50: < 0.0316 µM
[1]
  viability, T/C: 59.8%
[2]
  viability, T/C: 30.1%
[3]
  viability, T/C: 14.8%
[4]
  viability, T/C: 7.23%
[5]
  viability, T/C: 3%
[6]
  viability, T/C: 0.68%
[7]
  viability, T/C: 51.9%
[8]
  viability, T/C: 25.7%
[9]
  viability, T/C: 15.9%
[10]
  viability, T/C: 6.63%
[11]
  viability, T/C: 2.93%
[12]
  viability, T/C: 0.63%
[13]
  viability, T/C: 49.4%
[14]
  viability, T/C: 27.2%
[15]
  viability, T/C: 14.4%
[16]
  viability, T/C: 7.39%
[17]
  viability, T/C: 2.94%
[18]
  viability, T/C: 0.62%
[19]
  viability, T/C: 44.5%
[20]
  viability, T/C: 24.9%
[21]
  viability, T/C: 13.1%
[22]
  viability, T/C: 7.03%
[23]
  viability, T/C: 2.84%
[24]
  viability, T/C: 0.8%
[25]
  viability, T/C: 23.6%
[26]
  viability, T/C: 18.4%
[27]
  viability, T/C: 12.6%
[28]
  viability, T/C: 6.87%
[29]
  viability, T/C: 2.75%
[30]
  viability, T/C: 0.79%
[31]
  viability, T/C: 5.13%
[32]
  viability, T/C: 4.81%
[33]
  viability, T/C: 2.43%
[34]
  viability, T/C: 2.03%
[35]
  viability, T/C: 1.14%
[36]
  viability, T/C: 0.3%
